In patent US20240409609A1, “REVERSIBLE LYSINE COVALENT MODIFIERS OF EGFR AND USES THEREOF” (Terremoto Biosciences, Inc., priority 2021, published 2024) one finds IC50 data, which are given here for 33 compounds.

The target of one assay is EGFR WT (Homo sapiens (Human), UniProt P00533). The assay can be described thus: EGFR biochemical assay (AssayQuant chelation-enhanced fluorescence). Conditions: 30 min preincubation, reaction time 360 min.
The next assay deals with EGFR WT in Ba/F3 cells (Homo sapiens (Human), UniProt P00533). The assay can be described thus: Ba/F3 pEGFR assay (AlphaLISA p-EGFR Tyr1068). It counts as cell-based. To be noted: 2 hrs treatment, media supplemented with EGF. As to the method:
Cellular activity was determined using the Ba/F3 system for studying oncogenic mutant kinases (Warmuth 2007). […] Transduced cells were maintained in RPMI 1640 with 10% FBS. EGFR WT transduced cells were grown in media supplemented with EGF. To assay cellular activity of inhibitors, cells were treated with inhibitor from 1000X DMSO stock dilutions and incubated for 2 hrs at 37° C. 5% CO2. Subsequently, p-EGFR (Tyr1068) was quantified using a commercial sandwich immunoassay (PerkinElmer AlphaLISA SureFire assay; ALSU-PEGFR) according to the manufacturer's instructions. […] Curr Opin Oncol 19, 55-60 (2007), which is incorporated herein in its entirety.
On the technique in general: Alpha assays give light when donor and acceptor beads are brought close together.

Chain of EGFR WT in Ba/F3 cells (P00533 25-1210): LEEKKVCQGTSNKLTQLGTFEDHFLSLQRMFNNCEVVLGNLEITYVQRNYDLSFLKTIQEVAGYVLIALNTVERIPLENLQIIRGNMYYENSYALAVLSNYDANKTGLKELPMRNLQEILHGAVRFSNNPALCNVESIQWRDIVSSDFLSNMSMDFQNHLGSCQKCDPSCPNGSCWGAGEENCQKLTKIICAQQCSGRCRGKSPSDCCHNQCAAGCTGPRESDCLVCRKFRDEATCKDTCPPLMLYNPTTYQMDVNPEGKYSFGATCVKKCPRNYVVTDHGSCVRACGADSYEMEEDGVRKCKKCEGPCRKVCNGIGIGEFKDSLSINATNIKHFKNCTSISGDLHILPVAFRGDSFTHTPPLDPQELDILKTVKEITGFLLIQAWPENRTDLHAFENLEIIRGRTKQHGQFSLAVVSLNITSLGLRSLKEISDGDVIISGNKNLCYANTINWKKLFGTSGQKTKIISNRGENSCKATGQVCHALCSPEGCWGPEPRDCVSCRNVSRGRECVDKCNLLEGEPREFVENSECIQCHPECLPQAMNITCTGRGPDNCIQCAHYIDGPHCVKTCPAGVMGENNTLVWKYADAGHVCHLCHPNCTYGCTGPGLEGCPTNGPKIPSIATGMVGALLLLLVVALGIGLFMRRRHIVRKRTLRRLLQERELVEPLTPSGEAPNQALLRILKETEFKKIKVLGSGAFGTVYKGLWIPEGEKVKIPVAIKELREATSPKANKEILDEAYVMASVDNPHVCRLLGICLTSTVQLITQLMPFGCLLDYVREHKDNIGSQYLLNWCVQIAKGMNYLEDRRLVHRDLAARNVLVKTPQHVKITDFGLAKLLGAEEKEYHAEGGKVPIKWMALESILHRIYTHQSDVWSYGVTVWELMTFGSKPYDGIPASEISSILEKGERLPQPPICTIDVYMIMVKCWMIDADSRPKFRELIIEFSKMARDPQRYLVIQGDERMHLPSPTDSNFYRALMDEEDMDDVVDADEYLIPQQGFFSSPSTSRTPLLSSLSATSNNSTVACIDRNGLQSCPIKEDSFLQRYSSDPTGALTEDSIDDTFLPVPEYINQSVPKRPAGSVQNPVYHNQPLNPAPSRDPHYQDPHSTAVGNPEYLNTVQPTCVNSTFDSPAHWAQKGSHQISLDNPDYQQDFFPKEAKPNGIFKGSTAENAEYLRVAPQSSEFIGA
Chain of EGFR WT (P00533 668-1210): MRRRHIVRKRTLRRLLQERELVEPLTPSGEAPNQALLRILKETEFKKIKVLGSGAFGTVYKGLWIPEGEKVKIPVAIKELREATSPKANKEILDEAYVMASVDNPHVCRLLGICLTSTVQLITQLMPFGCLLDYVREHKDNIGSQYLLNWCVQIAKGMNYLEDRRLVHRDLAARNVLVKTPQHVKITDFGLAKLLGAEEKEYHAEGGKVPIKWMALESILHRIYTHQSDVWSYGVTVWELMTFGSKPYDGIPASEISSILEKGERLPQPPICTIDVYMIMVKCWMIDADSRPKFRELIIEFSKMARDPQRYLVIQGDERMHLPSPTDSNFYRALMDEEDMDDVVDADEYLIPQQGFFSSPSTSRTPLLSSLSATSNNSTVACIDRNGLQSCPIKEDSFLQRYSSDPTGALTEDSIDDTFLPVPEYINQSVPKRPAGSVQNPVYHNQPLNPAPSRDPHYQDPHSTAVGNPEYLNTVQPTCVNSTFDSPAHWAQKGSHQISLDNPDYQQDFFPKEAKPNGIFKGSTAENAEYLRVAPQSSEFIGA

For orientation: IC50 means the concentration needed to halve the response being measured. With `CN1CCN(Cc2ccc3[nH]/c(=N\C(=O)c4ccnc(C#Cc5cc(F)cc(O)c5C=O)c4)n(CC(C)(C)O)c3c2)CC1` [Compound 89], the 50% inhibitory concentration (IC50) on EGFR WT was 49.1 nM; at EGFR WT in Ba/F3 cells, more than 5820 nM.
The matching figures for `CC(C)(O)Cn1/c(=N/C(=O)c2ccnc(N3CCN(c4cccc(O)c4C=O)CC3)c2)[nH]c2ccccc21` [Compound 131]: more than 1000 nM and more than 10000 nM.
Consider `CN1CCN(Cc2ccc3[nH]/c(=N\C(=O)c4ccnc(Oc5c(F)ccc(O)c5C=O)c4)n(CC(C)(C)O)c3c2)CC1` [Compound 68], for which the results for the half-maximal inhibitory concentration (IC50) on EGFR WT and against EGFR WT in Ba/F3 cells were 9.73 nM and 3470 nM, respectively.
For `Cc1cc(C(=O)/N=c2\[nH]c3ccc(CN4CCN(C)CC4)cc3n2CC(C)(C)O)cc(-n2cc(-c3cccc(O)c3C=O)cn2)n1` [Compound 102] the same measures were 348 nM and more than 10000 nM.
In the case of `CNc1nc(Nc2ccc(N3CCC(N4CCN(C)CC4)CC3)cc2OC)ncc1-c1ccc(O)c(C=O)c1` [Compound 15], the IC50 at EGFR WT is 19.1 nM; against EGFR WT in Ba/F3 cells it was 9650 nM.
As for `CN1CCN(Cc2ccc3[nH]/c(=N\C(=O)c4ccnc(Oc5cccc(O)c5C=O)c4F)n(CC(C)(C)O)c3c2)CC1` [Compound 82], the IC50 is 67.9 nM at EGFR WT and more than 10000 nM against EGFR WT in Ba/F3 cells.
As for `CC(C)(O)Cn1/c(=N/C(=O)c2ccnc(Oc3cccc(O)c3C=O)c2)[nH]c2ccccc21` [Compound 121], the IC50 at EGFR WT was 10.5 nM; at EGFR WT in Ba/F3 cells, more than 10000 nM.
Consider `CN1CCN(Cc2ccc3[nH]/c(=N\C(=O)c4ccnc(C#Cc5cccc(O)c5C=O)c4)n(CC(C)(C)O)c3c2)CC1` [Compound 62], for which the values for the concentration for half-maximal inhibition (IC50) at EGFR WT and on EGFR WT in Ba/F3 cells were 7.05 nM and 3360 nM, respectively.
The matching figures for `CN1CCN(Cc2ccc3[nH]/c(=N\C(=O)c4ccnc(-c5cnn(-c6cccc(O)c6C=O)c5)c4)n(CC(C)(C)O)c3c2)CC1` [Compound 88]: 108 nM and more than 9970 nM.
Regarding `CC(C)c1ccc(N2CC(CS(C)(=O)=O)C2)c2cnc(Nc3ccnc(COc4cccc(O)c4C=O)n3)cc12` [Compound 42], the half-inhibitory concentration (IC50) at EGFR WT is 181 nM; on EGFR WT in Ba/F3 cells, more than 10000 nM.
Regarding `CC(C)c1ccc(N2CC(CS(C)(=O)=O)C2)c2cnc(Nc3ccnc(N(C)Cc4cccc(C=O)c4O)n3)cc12` [Compound 49], the IC50 at EGFR WT is more than 1000 nM; at EGFR WT in Ba/F3 cells it was 2290 nM.
The matching figures for `CN1CCN(Cc2ccc3[nH]/c(=N\C(=O)c4ccc(F)c(Oc5cccc(O)c5C=O)c4)n(CC(C)(C)O)c3c2)CC1` [Compound 110]: 5.01 nM and 1490 nM.
As to `COc1cc(N2CCC(N3CCN(C)CC3)CC2)ccc1Nc1ncc(-c2ccc(O)c(C=O)c2F)c(Nc2ccccc2)n1` [Compound 11], the IC50 on EGFR WT came to 11 nM; on EGFR WT in Ba/F3 cells, 70.8 nM.
For `CN1CCN(Cc2ccc3[nH]/c(=N\C(=O)c4ccnc(C#Cc5c(F)ccc(O)c5C=O)c4)n(CC(C)(C)O)c3c2)CC1` [Compound 57] the same measures were 6.03 nM and 1770 nM.
The matching figures for `COCCN1CCN(Cc2ccc3[nH]/c(=N\C(=O)c4ccnc(Oc5cccc(O)c5C=O)c4)n(CC(C)(C)O)c3c2)CC1` [Compound 75]: 14.6 nM and 3000 nM.
For `CC(=O)Nc1cccc(C#Cc2cc(C(=O)/N=c3\[nH]c4ccc(CN5CCN(C)CC5)cc4n3CC(C)(C)O)ccn2)c1C=O` [Compound 90], the values for the half-inhibitory concentration (IC50) at EGFR WT and at EGFR WT in Ba/F3 cells were 85.4 nM and 950 nM, respectively.
As for `CN1CCN(Cc2ccc3[nH]/c(=N\C(=O)c4ccnc(OCc5cccc(O)c5C=O)c4)n(CC(C)(C)O)c3c2)CC1` [Compound 112], the half-maximal inhibitory concentration (IC50) is more than 1000 nM at EGFR WT and 9870 nM at EGFR WT in Ba/F3 cells.
The matching figures for `CN1CCN(Cc2ccc3[nH]/c(=N\C(=O)c4ccc(Oc5cccc(O)c5C=O)s4)n(CC(C)(C)O)c3c2)CC1` [Compound 73]: 10.1 nM and 5000 nM.
With `CC(C)c1ccc(N2CC(CS(C)(=O)=O)C2)c2cnc(Nc3ccnc(N(C)CCc4cccc(O)c4C=O)n3)cc12` [Compound 45], the 50% inhibitory concentration (IC50) was more than 1000 nM at EGFR WT and more than 10000 nM against EGFR WT in Ba/F3 cells.
On to `Cc1ccc(C(=O)/N=c2\[nH]c3ccc(CN4CCN(C)CC4)cc3n2CC(C)(C)O)cc1Oc1cccc(O)c1C=O` [Compound 59], for which the IC50 on EGFR WT was 9.32 nM; against EGFR WT in Ba/F3 cells, 1130 nM.
The matching figures for `CN1CCN(Cc2ccc3[nH]/c(=N\C(=O)c4ccnc(-n5cc(-c6cccc(O)c6C=O)cn5)c4)n(CC(C)(C)O)c3c2)CC1` [Compound 85]: 52.1 nM and more than 8830 nM.
For `CN1CCN(Cc2ccc3[nH]/c(=N\C(=O)c4ccnc(N5CC(Oc6cccc(O)c6C=O)C5)c4)n(CC(C)(C)O)c3c2)CC1` [Compound 104], the IC50 on EGFR WT is 344 nM; against EGFR WT in Ba/F3 cells it was more than 10000 nM.
On to `CN1CCN(Cc2ccc3[nH]/c(=N\C(=O)c4ccnc(Oc5ccc(F)c(O)c5C=O)c4)n(CC(C)(C)O)c3c2)CC1` [Compound 77], for which the IC50 is 23.7 nM at EGFR WT and more than 8080 nM against EGFR WT in Ba/F3 cells.
For `COc1cc(N2CCC(N3CCN(C)CC3)CC2)ccc1Nc1ncc(Cl)c(Nc2ccc(O)c(C=O)c2)n1` [Compound 35] the same measures were 292 nM and more than 10000 nM.
The matching figures for `CC(C)(O)Cn1/c(=N/C(=O)c2ccnc(COc3cccc(O)c3C=O)c2)[nH]c2ccccc21` [Compound 133]: 316 nM and more than 10000 nM.
`COc1cc(N2CCC(N3CCN(C)CC3)CC2)ccc1Nc1ncc(-c2ccc(NC(C)=O)c(C=O)c2)c(Nc2ccccc2)n1` [Compound 20]: the IC50 at EGFR WT is more than 1000 nM; at EGFR WT in Ba/F3 cells, more than 10000 nM.
The matching figures for `CN1CCN(Cc2ccc3[nH]/c(=N\C(=O)c4cc(Cl)nc(Cc5cccc(O)c5C=O)c4)n(CC(C)(C)O)c3c2)CC1` [Compound 86]: 23.8 nM and more than 10000 nM.
For `CC(C)c1ccc(N2CC(CS(C)(=O)=O)C2)c2cnc(Nc3ccnc(-n4cc(-c5cccc(O)c5C=O)cn4)n3)cc12` [Compound 44] the same measures were 197 nM and 6850 nM.
Regarding `COc1cc(N2CCC(N3CCN(C)CC3)CC2)ccc1Nc1ncc(-c2cc(C=O)c(O)cc2OC)c(Nc2ccccc2)n1` [Compound 13], the IC50 on EGFR WT was 94 nM; on EGFR WT in Ba/F3 cells it was more than 10000 nM.
The matching figures for `CN1CCN(Cc2ccc3[nH]/c(=N\C(=O)c4cc(C#N)cc(Oc5cccc(O)c5C=O)c4)n(CC(C)(C)O)c3c2)CC1` [Compound 51]: 5.88 nM and 1900 nM.
The matching figures for `COc1cc(N2CCC(N3CCN(C)CC3)CC2)ccc1Nc1ncc(-c2cccc(C=O)c2O)c(Nc2ccccc2)n1` [Compound 5]: 398 nM and more than 10000 nM.
Turning to `CN1CCN(Cc2ccc3[nH]/c(=N\C(=O)c4cccc(Oc5cccc(O)c5C=O)c4)n(CC(C)(C)O)c3c2)CC1` [Compound 52], the IC50 was determined as 8.42 nM at EGFR WT and 4860 nM at EGFR WT in Ba/F3 cells.
Take `CN1CCN(Cc2ccc3[nH]/c(=N\C(=O)c4cc(C=O)cc(Oc5cccc(O)c5C=O)c4)n(CC(C)(C)O)c3c2)CC1` [Compound 58]: the IC50 on EGFR WT is 10.3 nM; against EGFR WT in Ba/F3 cells, more than 10000 nM.
